Assay results as given in paper PMC4396695, “Structure of the Ribosomal Oxygenase OGFOD1 Provides Insights into the Regio- and Stereoselectivity of Prolyl Hydroxylases” (Structure(London, England:1993), 2015).

How the values were obtained:
[1] = molecular target: T1, OGFOD1 (Homo sapiens, UniProt Q8N543); experiment: hydroxylation of uS12 […]-70 peptide by MALDI-TOF MS; type: biochemical; design: 542 aa, N-terminal hexa-histidine tag
T1 sequence (Q8N543 1-542): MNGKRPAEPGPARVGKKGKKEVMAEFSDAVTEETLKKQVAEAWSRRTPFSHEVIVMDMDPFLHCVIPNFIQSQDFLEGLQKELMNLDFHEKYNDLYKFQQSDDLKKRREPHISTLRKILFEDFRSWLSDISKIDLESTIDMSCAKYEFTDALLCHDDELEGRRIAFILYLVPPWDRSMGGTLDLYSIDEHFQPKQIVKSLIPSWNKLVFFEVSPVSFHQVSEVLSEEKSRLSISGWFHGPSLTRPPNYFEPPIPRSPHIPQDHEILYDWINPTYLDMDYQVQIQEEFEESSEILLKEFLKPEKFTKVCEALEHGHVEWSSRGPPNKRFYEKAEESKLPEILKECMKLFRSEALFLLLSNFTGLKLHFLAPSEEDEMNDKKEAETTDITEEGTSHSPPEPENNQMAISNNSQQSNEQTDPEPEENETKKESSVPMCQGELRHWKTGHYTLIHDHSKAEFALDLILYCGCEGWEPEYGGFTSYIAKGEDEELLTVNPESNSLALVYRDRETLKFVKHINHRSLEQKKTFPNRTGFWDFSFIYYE

[2] = molecular target: T2, Tpa1p (Saccharomyces cerevisiae, UniProt P40032); experiment: X-ray crystal structure, […] Å; type: binding
T2 construct: gene TPA1; full-length (644 aa), N-terminal hexa-histidine tag

[3] = molecular target: T1, OGFOD1; experiment: X-ray crystal structure, […] Å (also enzyme inhibition, Figure 6A); type: binding; design: full-length (542 aa), N-terminal hexa-histidine tag
[4] = molecular target: T2, Tpa1p; experiment: X-ray crystal structure, […] Å; type: binding; remark: listed apart in the source

T2 sequence (P40032 whole entry): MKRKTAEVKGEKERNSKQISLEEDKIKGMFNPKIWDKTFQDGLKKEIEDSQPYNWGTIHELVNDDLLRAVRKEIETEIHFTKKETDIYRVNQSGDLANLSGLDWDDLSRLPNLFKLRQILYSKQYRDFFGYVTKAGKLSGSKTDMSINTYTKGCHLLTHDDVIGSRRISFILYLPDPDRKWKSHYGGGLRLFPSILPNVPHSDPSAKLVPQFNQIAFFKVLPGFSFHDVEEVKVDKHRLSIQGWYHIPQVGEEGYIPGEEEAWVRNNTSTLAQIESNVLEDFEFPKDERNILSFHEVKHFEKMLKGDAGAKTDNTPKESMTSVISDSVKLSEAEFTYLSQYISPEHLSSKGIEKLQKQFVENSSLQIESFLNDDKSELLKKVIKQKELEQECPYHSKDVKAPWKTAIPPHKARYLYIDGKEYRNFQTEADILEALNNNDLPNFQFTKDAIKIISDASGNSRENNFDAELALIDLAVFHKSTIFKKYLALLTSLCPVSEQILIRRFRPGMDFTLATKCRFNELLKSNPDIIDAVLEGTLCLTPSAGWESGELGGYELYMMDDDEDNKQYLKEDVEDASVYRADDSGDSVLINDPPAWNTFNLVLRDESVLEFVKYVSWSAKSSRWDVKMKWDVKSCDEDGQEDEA

O=C(O)CNC(=O)c1nc(Cl)c2ccccc2c1O [IOX3, 1-chloro-4-hydroxyisoquinoline-3-carbonylglycine]
IC50 [1]: 520 ± 80 nM
X-ray crystal structure, 1.9 Å [2]: In Tpa1p, IOX3 binds similarly to NOG with its glycyl side chain carboxylate positioned to form a salt bridge

O=C(O)CNC(=O)C(=O)O [N-oxalylglycine]
X-ray crystal structure, 2.1 Å (also enzyme inhibition, Figure 6A) [3]: With OGFOD1 the C-5 carboxylate of NOG is positioned to form hydrogen bonds to the side chains of Tyr169 and Arg230
X-ray crystal structure, 2.8 Å [4]: OGFOD1 and Tpa1p bind NOG similarly.
